Measurements published in US11596623B2, “Methods for treating virus infection or proliferation” (HOWARD UNIVERSITY, priority 2018, dated 2023).

Legend:
[1] = tested on: RACK1A protein; assay: RACK1 protein expression under salt stress, western blot; type: in vivo; conditions: Arabidopsis lysates
Text: The abundant leaf protein Rubisco large subunit (RbcL) was used as a loading control for the blot. The 37 kD RACK1 band was absent from the genetic knockout of RACK1 plants (double mutant-rack1ab lane).
The reported positive expression of RACK1A protein under salt stress condition in Arabidopsis has led us to examine the RACK1A expression in the presence and absence of the inhibitor compounds during salt stresses. We determined that the RACK1A protein expression was specifically modulated by the inhibitor compounds when the lysates with salt or without salt in the presence and absence of the small compounds were probed with an antibody raised by using the full length RACK1A protein as antigen (Agrisera, Vännäs, Sweden, FIG. 2C). […] However, whether the effect of SD29-12 is Arabidopsis salt stress specific condition needs further experimental evidence. As the antibody cross-reacts with all three RACK1 isoforms in Arabidopsis, we used the double knockout (rack1ab) as a negative control on the blot (triple mutant is lethal at the early seedling stage). The large subunit of the abundant leaf protein rubisco (RbcL) was used as loading control for this blot. As the results support the in-silico based prediction, we set out to investigate the effect of the compounds on the mammalian RACK1 based virus proliferation.

[2] = tested on: HSV-1; assay: Plaque formation unit (pfu) assay; type: cell-based
Procedure: The viral plaque assay was performed as previously described [Tang Q, Li L, Ishov A M, Revol V, Epstein A L, Maul G G. Determination of minimum herpes simplex virus type 1 components necessary to localize transcriptionally active DNA to ND10. J Virol. 2003; 77:5821-28.] with slight modifications. The HSV-1 strain 17 was diluted serially in a volume of 1 mL. Then 300 ul of the virus was added onto confluent HEp-2 cell monolayers in 12-well plates; each dilution had 3 wells. After adsorption for 2 h, the medium was removed and the cells were washed twice with serum-free DMEM and overlaid with phenol-free DMEM containing 5% FCS, 0.5% low-melting point agarose (GIBCO), and 1% penicillin-streptomycin. The cells were incubated at 37° C. for 48 hours. Neutral red was added on the agarose to stain the live cells. The plaques were counted and reported as pfu per mL. Mean pfu was determined after averaging the number of pfu from different dilutions. Student's t-tests were used to statistically analyze differences between the groups; a p-value lower than 0.005 was used as the threshold for a significant difference.
To assess the efficacy of SD-29 on the HSV-1 proliferation, a plaque assay was performed. We wanted to quantitatively assess whether SD-29 could inhibit viral replication. Because HSV-1 was able to enter cultured HEp-2 cells, we evaluated whether this entry led to productive virus replication.
In Table 1, confluent monolayers of HEp-2 cells were infected with serially diluted HSV-1 virus and were fixed and Giemsa stained at 0, 6, 12, and 24 hr post infection. The numbers of plaques were visualized. The number of plaques formed post infection decreased in the presence of SD-29 in a time-dependent manner.

[3] = tested on: HSV-1 ICP0; assay: Real-time RT-PCR of HSV-1 ICP0 transcript in HEp-2 cells; type: cell-based; conditions: 12 and 24 hpi, versus DMSO
Text: The total transcript levels were quantified using actin expression as an internal control. The cDNA obtained immediately after the virus and drug transfection(s) was set as a baseline value. The normalized expression values were transformed to the log 10 value. The data plot represents mean t standard error calculated from three replicates.
Following instructions of the manufacturers, total RNA was isolated using Tri Reagent® (Ambion, Inc., Austin, Tex.). To quantitatively examine the mRNA level of HSV-1 ICP0 from the infected cells, real-time RT-PCR was undertaken using the QuantiTect SYBR Green RT-PCR kit (QIAGEN, Valencia, Calif.). […] Fluorescence (captured at 80° C.) was determined to be absent from the signal generated by primer dimers. Data were collected and recorded by the BIORAD CFX Manager software. The relative quantity of the ICP0 transcripts at the indicated time points was normalized to the relative quantity of the reference gene actin at the same time points and then the log10 copy number of the normalized RNA transcripts were calculated and presented on a bar chart. A melting temperature curve analysis was obtained by measuring (after the amplification cycles) the fluorescence during a period of warming from 60° C. to 95° C. […]

[4] = target: T1, recombinant RACK1A protein (Oryza sativa subsp. japonica, UniProt Q6L4F8); assay: Surface Plasmon Resonance (SPR) binding assay; parameters: species or system rice; conditions: immobilized recombinant RACK1A, KD50=kd/ka
T1 construct: His tag (C); made in house; host or cells: E. coli BL21(DE3)
T1 sequence (Q6L4F8 whole entry): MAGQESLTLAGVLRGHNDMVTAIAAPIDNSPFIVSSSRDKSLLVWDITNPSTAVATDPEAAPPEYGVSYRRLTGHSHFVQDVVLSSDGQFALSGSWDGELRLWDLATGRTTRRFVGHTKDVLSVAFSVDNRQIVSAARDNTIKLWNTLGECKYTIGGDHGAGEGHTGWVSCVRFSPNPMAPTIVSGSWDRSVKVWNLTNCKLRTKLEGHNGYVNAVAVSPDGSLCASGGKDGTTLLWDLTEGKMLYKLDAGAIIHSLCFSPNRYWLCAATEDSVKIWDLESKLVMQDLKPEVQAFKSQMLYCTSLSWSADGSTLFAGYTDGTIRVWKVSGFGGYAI
Procedure: SD-29 (left panel) and SD-29-12 (right panel) were separately injected three times on the CM5 chip at 0, 1.56 μM, at 3.13 μM, 6.25 μM, 12.5 μM, 25 μM, 50 μM, and 100 μM (top sensor) concentrations (left panel) and at 3.13 μM, 6.25 μM, 12.5 μM, 25 μM, 50 μM, and 100 μM (top sensor) concentrations (right panel).
To obtain in vitro confirmation of the binding of the isolated compounds to the purified RACK1 protein, the small compound SD-29 and its structural analog SD29-12 were evaluated for their binding potential with the recombinant RACK1A proteins using the Surface Plasmon Resonance (SPR) chip. SPR experiments were carried out with a Biacore T200 equipped with a CM5 sensor chip. Briefly, recombinant RACK1A cysteine-tagged protein was immobilized on flow cell (FC) 2 in HEPES buffered saline (10 mM Hepes, pH 7.4, and 150 mM NaCl, 3 mM CaCl2)) using a thiol-coupling kit according to the manufacturer's protocol, resulting in immobilization levels of 4580 response units (RU). FC1 was only activated and inactivated and used as a reference. SD-29 stock solution was diluted to a final concentration of 100, 75, 50, 25, 10 μM and 1 μM injected in 10 mM Hepes, 150 mM NaCl, 3 mM CaCl2), 1% DMSO, and 0.5% P20. Each injection was repeated three times for 60 s. […] KD50 is calculated by the equation: KD50=kd/ka; kd—dissociation rate constant, ka—association rate constant. […]

[5] = tested on: HEp-2 cells; assay: Trypan blue exclusion cell viability; type: cell-based; conditions: 24-hour treatment
Procedure: In order to assess whether the compounds are producing any toxicity that can led to the cell deaths, we evaluated the cell viability by the trypan blue exclusion method. As long-term inhibition of RACK1 expression has been reported to cell cycle arrest, we limited our experimental treatments to 24 h and evaluated the cell viability of almost full confluent cells after 24 h of compound treatment.
In table 2, the viability of cells was measured with Trypan blue exclusion assay in a Cellometer (Nexcelom, Lawrence, Mass.). The percentage survival of the compound treated cells was evaluated along with the DMSO treated cells. The values represent the mean±SE of three separate well based replicates.

[6] = tested on: HSV1-Luc (R8411); assay: HSV1-Luc bioluminescence luciferase assay in HEp-2 cells; type: cell-based, HSV-1; conditions: 10 μM
Procedure: (A) Hep-2 cells were incubated with the indicated compounds in the presence of HSV1-Luc virus at a concentration of 4×10^6 pfu/ml media. (B) Quantification of the luciferase signal from the samples in panel (A). Signals from three replicates from two separate experiments were combined to generate the average and the standard error bar.
(§1) To 80-90% confluent HEp-2 cells, HSV-1-Luc (R8411) are added at a concentration of 2×10e^6 pfu/ml along with indicated concentration of inhibitor compounds. After the described incubation period, luciferase activity is evaluated from bioluminescence images acquired by a Perkin Elmer IVIS Spectrum Imaging system immediately after adding luciferase substrate (D-luciferin, Gold Bio Technology) at a concentration of 400 μg/mL in medium. Bioluminescence intensity in different wells is quantified in units of photons per second per centimetre squared per steradian (p/s/cm^2/sr) by drawing a polygonal region of interest over the signals in images using Living Image 3.0 software (Caliper Life Sciences).
as §1, with “cells, HSV1-Luc” for “cells, HSV-1-Luc”, “(R8411) was” for “(R8411) are”, “activity was” for “activity is”, “wells was” for “wells is”, “per centimeter” for “per centimetre”
To visualize the effect of the drugs on the proliferation of HSV-1, a luciferase tagged HSV-1 F strain expressing luciferase (R8411 mutant) under the control of ICP27 promoter was obtained [Horsburgh B C, Hubinette M M, Tufaro F. Genetic manipulation of herpes simplex virus using bacterial artificial chromosomes. Methods Enzymol. 1999; 306:337-52]. […] The same samples after incubation of 48 h were used to assay for HSV-1 ICP0 and RACK1 protein expression (B of FIG. 5). Depletion of RACK1 by the compounds correlated with the depletion of the viral ICP0 protein confirming earlier results shown in B of FIG. 3.

Structure (SMILES) | RACK1 protein expression under salt stress [1] | Plaque formation unit ([2]; 0 hpi) | Plaque formation unit ([2]; 6 hpi) | Plaque formation unit ([2]; 12 hpi) | Plaque formation unit ([2]; 24 hpi) | ICP0 mRNA level [3] | Kd [4] | HEp-2 Cell viability, Mean ([5]; 10 μM) | HEp-2 Cell viability, Mean ([5]; 100 μM) | HSV1-Luc proliferation [6]
COc1ccc(-c2nnc(SCC(=O)O)n2N)cc1 [SD29-12] | not | 0 ± 0 PFU/mL | 3.8 ± 0.07 × 10^2 PFU/mL | 3.6 ± 0.04 × 10^3 PFU/mL | 2.6 ± 0.03 × 10^6 PFU/mL | essentially showed the same level of ICP0 mRNA | 58 µM | 92.7% | 97.7% | 
Nc1nc2c(ncn2COCCO)c(=O)[nH]1 [acyclovir, reference compound] |  |  |  |  |  |  |  |  |  | showed inhibition of the HSV1-Luc proliferation
